One assay concerns the target Cathepsin B (Bos taurus) (UniProt P07688). As to the kind of experiment: Compound was evaluated for the ability to inhibit cathepsin B purified from bovine spleen.
The target of assay [1] is T1, Caspase-1 (Homo sapiens) (UniProt P29466).
T1 sequence (whole entry): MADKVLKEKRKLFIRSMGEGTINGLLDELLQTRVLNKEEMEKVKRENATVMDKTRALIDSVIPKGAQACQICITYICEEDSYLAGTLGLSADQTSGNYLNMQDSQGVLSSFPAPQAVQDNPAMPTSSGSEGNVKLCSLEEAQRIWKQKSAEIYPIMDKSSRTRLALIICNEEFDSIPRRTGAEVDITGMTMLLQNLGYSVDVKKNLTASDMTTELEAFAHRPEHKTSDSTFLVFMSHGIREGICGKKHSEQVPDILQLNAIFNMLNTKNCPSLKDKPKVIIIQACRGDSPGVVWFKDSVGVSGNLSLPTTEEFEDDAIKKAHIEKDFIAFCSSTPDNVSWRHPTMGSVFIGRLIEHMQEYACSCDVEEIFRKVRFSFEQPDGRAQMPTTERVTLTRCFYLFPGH
Put plainly: Compound was evaluated for the ability to inhibit Interleukin-1-beta-converting enzyme (ICE) purified from THP-1 cells; […].

Assay [2] is described as follows: Selectivity (ICE:cathepsin) of the compound; 700:1.
Assay [3] in a line: Selectivity (ICE:cathepsin) of the compound; 108:1.
In assay [4] the target is T1, Caspase-1 (Homo sapiens). Put plainly: Compound was evaluated for the ability to inhibit Interleukin-1-beta-converting enzyme (ICE) purified from THP-1 cells.

Some results are limits rather than exact numbers.

`CC(C)[C@H](NC(=O)OCc1ccccc1)C(=O)N[C@@H](C)C(=O)N[C@@H](CC(=O)O)C(=O)COC(=O)c1c(Cl)cccc1Cl` showed a k obs / 1 at Cathepsin B (Bos taurus) of 2250 M⁻¹ s⁻¹. Take `O=C(O)CC[C@H](NC(=O)OCc1ccccc1)C(=O)COC(=O)c1c(Cl)cccc1Cl`: the “k obs / 1” value on Caspase-1 (Homo sapiens) [1] is “No inhibition”. The molecule `O=C(O)C[C@H](NC(=O)OCc1ccccc1)C(=O)COC(=O)c1c(Cl)cccc1Cl` came in with a k obs / 1 at Cathepsin B (Bos taurus) of less than 10 M⁻¹ s⁻¹. The Selectivity in assay [2] was greater than 700. Regarding `CC(C)C(NC(=O)OCc1ccccc1)C(=O)N[C@@H](CC(=O)O)C(=O)COC(=O)c1c(Cl)cccc1Cl` (some centres not stated), the k obs / 1 is 380 M⁻¹ s⁻¹ on Cathepsin B (Bos taurus) and 41000 M⁻¹ s⁻¹ on Caspase-1 (Homo sapiens) [4]. The Selectivity in assay [3] amounted to 108.

(Values after ChEMBL document CHEMBL1127336, “P1 aspartate-based peptide alpha-((2,6-dichlorobenzoyl)oxy)methyl ketones as potent time-dependent inhibitors of interleukin-1 beta-converting enzyme” (J Med Chem, 1994).)
